According to paper PMC10245146, “CNS4 causes subtype‐specific changes in agonist efficacy and reversal potential of permeant cations in NMDA receptors” (Pharmacology Research & Perspectives, 2023):

Experiments:
GluN1/2C NMDA receptors = biological target: T1, GluN1/2C NMDA receptors (UniProt P35439+Q14957); test: TEVC agonist dose-response, Xenopus oocytes expressing 1/2C; type: cell-based
T1 construct: host or cells: Xenopus oocytes (cRNA injection)
Description: NMDA receptor constructs: cDNA encoding the NMDA receptor1a subunit (GluN1a) was obtained from Dr. Nakanishi (Kyoto, Japan). cDNA encoding the GluN2B (pci_sepGluN2B), originally developed in the Malinow lab,[33] was purchased from Addgene (cat# 23998), Cambridge, MA. cDNA encoding the GluN2C and GluN2D were purchased from GenScript, New Jersey, USA. Mutated GluN1, 2A and 2B cDNA constructs capable of assembling as GluN1/2A/2B triheteromeric (1/2AB) receptors[34] were obtained from Dr. Paoletti (Laboratoire de Neurobiologie, CNRS). These constructs have been previously tested for 1/2AB receptor activity of GluN1/2A receptor‐selective potentiators.[35] […] Plasmids were linearized with NotI (GluN1a and all five GluN1 mutants) or Avrll (GluN2B), or BstB1 (GluN2C and GluN2D) and transcribed in vitro with T7 (GluN1a, GluN1/2A, GluN2B, GluN2C & GluN2D), and SP6 (GluN1 mutants) RNA polymerase using the mMessage mMachine transcription kits (Invitrogen by Thermo Fisher Scientific).
Stage IV frog oocytes were obtained from Xenopus‐I, (Ann Arbor, MI, USA). NMDA receptor subunit cRNAs were suspended in nuclease free sterile water. GluN1A, GluN2B, GluN2C, GluN2D and GluN1/2A/2B cRNAs were mixed in a ratio of 1:1–3. 50 nL of the final cRNA mixture was microinjected (40–70 ng total) into the oocyte cytoplasm. Oocytes were incubated in ND‐96 solution at 18°C prior to electrophysiological recordings (2–5 days).
Electrophysiological responses were measured using a standard two‐microelectrode voltage‐clamp workstation (Warner Instruments model OC‐725C) designed to provide a fast clamp of large cells. The recording buffer contained 116 mM NaCl, 2 mM KCl, 0.3 mM BaCl2, and 5 mM HEPES, pH 7.4. Response magnitude was determined in Xenopus oocytes expressing different NMDA receptor subunits (GluN1/2A, 1/2B, 1/2C, 1/2D, and 1/2A/2B) by the steady plateau response elicited by bath application of different agonist concentrations. […] All data points were obtained from the steady state currents unless stated otherwise. Dose–response relationships were fit to an appropriate curve‐fitting equation using GraphPad Prism‐7. Non‐linear regression was used to calculate EC50, IC50, and fold change or percentage maximal response. Curves were fit using the following equations as performed in the previous studies, [37]: Y=100/1+10^LogEC50−XorY=Bottom+Top−Bottom/1+10^LogEC50−X . Statistical significance was determined at the overall alpha level 0.05, using appropriate statistical methods as described in all figure captions. Technical and biological replicates are explicitly mentioned in each figure legend, as n = X (Y). X represents technical repeats (number of traces) and Y represents biological repeats (number of oocytes or HEK293T cells studied). […]

GluN1/2AB receptors = test: Whole-cell patch-clamp, HEK293T cells expressing recombinant GluN1/2AB; type: cell-based; settings: 100 μM CNS4 applied 4 s before and with 100 μM glutamate + 100 μM glycine; agonist alone −546 ± 32.34 pA; n = 8(4), p = .023
Protocol: Whole‐cell patch‐clamp electrophysiology studies were carried out in HEK‐293T cells expressing recombinant NMDA receptors that lack native functional NMDA receptors.[29], [30], [31] An equal quantity of (1 μg) cDNA for GluN1a, GluN2 subunits were co‐transfected 24‐48 h before patch‐clamp electrophysiology assay. […] Cells were carefully washed before performing experiments and were used for the electrophysiology experiments after 24 to 48 h incubation at 37°C with 5%CO2. The whole‐cell patch‐clamp electrophysiology assay was performed using semi‐automated patch‐clamp equipment, Port‐a‐Patch (Nanion Technologies GmbH). Following are the constituents of various solutions used for patch‐clamp electrophysiology: internal solution ([mM] NaCl 10, EGTA 20, CsF 110, HEPES 10), Mg‐free external (recording) solution ([mM] NaCl 140, KCl 4, CaCl2 2, HEPES 10, D‐GlucoseMonohydrate 5), and Mg‐free seal enhancer solution ([mM] NaCl 80, KCl 3, CaCl2 35, HEPES 10). Nanion NPC chips with […] resistance were used for the HEK‐293T cell recordings.
FIGURE 1 CNS4 sensitizes ambient concentration of agonists in GluN2 subunit dependent manner. […] Statistical significance was calculated from the Wilcoxon matched‐pairs signed rank test, except the comparison between 1/2A & 1/2AB CNS4 with no agonist data, which was done by unpaired t‐test. […]

T1 sequence (Q14957 20-1233, other chains not shown): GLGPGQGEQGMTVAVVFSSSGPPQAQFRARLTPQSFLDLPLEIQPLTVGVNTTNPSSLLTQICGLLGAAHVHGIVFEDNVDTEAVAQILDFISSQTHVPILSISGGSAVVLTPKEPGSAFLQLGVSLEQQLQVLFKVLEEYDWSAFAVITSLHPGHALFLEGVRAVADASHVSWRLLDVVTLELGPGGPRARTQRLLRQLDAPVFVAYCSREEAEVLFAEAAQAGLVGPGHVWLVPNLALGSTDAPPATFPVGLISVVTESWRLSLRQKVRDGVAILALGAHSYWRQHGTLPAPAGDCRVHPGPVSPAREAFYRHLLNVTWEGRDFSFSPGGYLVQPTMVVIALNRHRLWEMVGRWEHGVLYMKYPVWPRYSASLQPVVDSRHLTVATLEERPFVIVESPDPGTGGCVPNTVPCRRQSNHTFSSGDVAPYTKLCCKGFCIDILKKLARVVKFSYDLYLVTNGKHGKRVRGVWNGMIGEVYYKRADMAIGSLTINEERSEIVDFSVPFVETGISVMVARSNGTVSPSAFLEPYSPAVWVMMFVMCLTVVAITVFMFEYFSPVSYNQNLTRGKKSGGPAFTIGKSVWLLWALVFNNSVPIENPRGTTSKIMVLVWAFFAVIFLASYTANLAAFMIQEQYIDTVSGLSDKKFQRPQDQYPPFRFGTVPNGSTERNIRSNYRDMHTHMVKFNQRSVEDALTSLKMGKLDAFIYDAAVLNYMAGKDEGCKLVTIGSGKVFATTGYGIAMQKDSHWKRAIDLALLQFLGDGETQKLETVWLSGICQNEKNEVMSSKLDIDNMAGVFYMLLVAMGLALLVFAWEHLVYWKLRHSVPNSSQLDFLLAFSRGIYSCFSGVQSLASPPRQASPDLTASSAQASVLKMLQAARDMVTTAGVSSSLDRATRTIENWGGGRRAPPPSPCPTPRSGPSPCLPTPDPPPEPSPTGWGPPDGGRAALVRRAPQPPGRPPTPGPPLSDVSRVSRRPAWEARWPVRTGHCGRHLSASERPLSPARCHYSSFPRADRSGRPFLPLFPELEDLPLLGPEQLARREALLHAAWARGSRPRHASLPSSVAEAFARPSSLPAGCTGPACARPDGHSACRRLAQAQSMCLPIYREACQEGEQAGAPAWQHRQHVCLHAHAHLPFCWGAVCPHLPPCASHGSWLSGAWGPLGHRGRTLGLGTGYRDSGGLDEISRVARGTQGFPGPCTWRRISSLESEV

O=C(NC(=S)N1CCCCC1c1cccnc1)c1ccc(F)cc1 (centres unmarked) [CNS4]
Increase in glycine efficacy with vs without CNS4 (GluN1/2C NMDA receptors; 30 μM CNS4): 1.8 fold
Reduction in glutamate efficacy with vs without CNS4 (GluN1/2C NMDA receptors; 30 μM CNS4): 2.1 fold
Glycine efficacy: relative fold change in current at highest glycine concentration (GluN1/2C NMDA receptors; with 30 μM CNS4, 100 μM glutamate constant, relative to 100 nM glycine, p = .0015): 1.77 ± 0.20 fold
Glutamate efficacy: relative fold change in current at highest glutamate concentration (GluN1/2C NMDA receptors; with 30 μM CNS4, 100 μM glycine constant, relative to 100 nM glutamate, p = .0001): 3.93 ± 0.43 fold
Peak current amplitude (GluN1/2AB receptors): –380.7 ± 36.61 pA
